Test results published in ChEMBL document CHEMBL1201862, “PubChem BioAssay data set” (2004).
The source made the active and inactive calls.

Legend:
DNA topoisomerase = DNA topoisomerase (Yersinia pestis, UniProt A0A2S9PM60); test: Y. pestis Topo-I inhibitors, cleavage product readout, dose response, biochemical, cherry-pick (AID 588525)
HeLa = test: HeLa cell cytotoxicity, dose response, cytotoxicity control, 24 h, cherry-picked samples (AID 504726); assay type: functional, cell-based; conditions: Homo sapiens;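 further: potency for cytotoxicity as loss of luminescence signal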
Troponin, cardiac muscle = Troponin, cardiac muscle (Homo sapiens, UniProt P19429+P45379+P63316); test: Fluorescence-based biochemical high throughput dose response assay for activators of the calcium sensitivity of cardiac Regulated Thin Filaments (RTF). [Related pubchem assays (depositor defined):AID493008, AID493018, AID504382, AID504383]; assay type: protein-complex assay
CHO = test: cytotoxicity in TLR9-MyD88 CHO cells, dose response, cytotoxicity control for TLR9-MyD88 binding inhibitor project, cell-based, luminescence (AID 588339); assay type: functional, hamster; conditions: Cricetulus griseus;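 further: CHO cells stably coexpressing TLR9 and MyD88 fusions from primary screen; compound exposure lasted 48 hours before viability readout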
Beta Lactamase = Beta Lactamase (Pseudomonas aeruginosa, UniProt Q932Y6); test: beta-lactamase reporter inhibitor potency, dose response, artefact control for TLR9-MyD88 binding inhibitor project, BLA reporter cells, FRET fluorescence (AID 588341); assay type: cell-based;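 further: cell based assay in CHO-K1 cells stably expressing beta-lactamase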
Chain of Beta Lactamase (Q932Y6 whole entry): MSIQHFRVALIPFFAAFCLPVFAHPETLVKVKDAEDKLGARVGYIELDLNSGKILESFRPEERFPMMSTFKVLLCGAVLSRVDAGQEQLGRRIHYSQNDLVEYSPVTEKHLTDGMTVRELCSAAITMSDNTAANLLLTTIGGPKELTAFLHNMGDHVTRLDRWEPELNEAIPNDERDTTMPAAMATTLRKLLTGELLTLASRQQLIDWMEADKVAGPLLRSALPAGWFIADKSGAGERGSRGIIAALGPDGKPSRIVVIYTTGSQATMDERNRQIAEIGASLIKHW

[1] = molecular target: T1, Sentrin-specific protease 8 (Homo sapiens, UniProt Q96LD8); test: SENP8 protease inhibitors, SAR follow-up, biochemical, luminescence (AID 504501); assay type: functional
T1 sequence (Q96LD8 whole entry): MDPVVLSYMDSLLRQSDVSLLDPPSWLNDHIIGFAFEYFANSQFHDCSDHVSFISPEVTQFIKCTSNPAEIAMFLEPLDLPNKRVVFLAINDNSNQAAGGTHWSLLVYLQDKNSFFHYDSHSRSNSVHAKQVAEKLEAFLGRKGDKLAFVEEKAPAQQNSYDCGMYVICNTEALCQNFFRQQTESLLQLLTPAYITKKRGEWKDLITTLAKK

Caspase-3 = molecular target: T2, Caspase-3 (Homo sapiens, UniProt P42574); test: SAR Analysis of small molecule inhibitors of Sentrin-specific proteases (SENPs) using a Caspase-3 Selectivity assay. [Related pubchem assays (depositor defined):AID2540, AID2599, AID434973, AID489001]; assay type: functional
T2 sequence (P42574 whole entry): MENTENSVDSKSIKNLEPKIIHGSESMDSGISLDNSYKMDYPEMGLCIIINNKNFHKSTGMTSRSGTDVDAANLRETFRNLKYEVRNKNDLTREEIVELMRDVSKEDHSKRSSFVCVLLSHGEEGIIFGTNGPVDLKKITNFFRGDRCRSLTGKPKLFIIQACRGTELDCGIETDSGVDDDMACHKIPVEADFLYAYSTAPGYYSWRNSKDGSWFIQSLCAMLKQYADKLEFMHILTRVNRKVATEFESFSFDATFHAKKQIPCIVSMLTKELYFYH

[2] = molecular target: T3, Sentrin-specific protease 6 (Homo sapiens, UniProt Q9GZR1); test: SAR Analysis of small molecule inhibitors of Sentrin-specific protease 6 (SENP6) using a Luminescent assay. [Related pubchem assays (depositor defined):AID2582, AID2599]; assay type: functional
T3 sequence (Q9GZR1 whole entry): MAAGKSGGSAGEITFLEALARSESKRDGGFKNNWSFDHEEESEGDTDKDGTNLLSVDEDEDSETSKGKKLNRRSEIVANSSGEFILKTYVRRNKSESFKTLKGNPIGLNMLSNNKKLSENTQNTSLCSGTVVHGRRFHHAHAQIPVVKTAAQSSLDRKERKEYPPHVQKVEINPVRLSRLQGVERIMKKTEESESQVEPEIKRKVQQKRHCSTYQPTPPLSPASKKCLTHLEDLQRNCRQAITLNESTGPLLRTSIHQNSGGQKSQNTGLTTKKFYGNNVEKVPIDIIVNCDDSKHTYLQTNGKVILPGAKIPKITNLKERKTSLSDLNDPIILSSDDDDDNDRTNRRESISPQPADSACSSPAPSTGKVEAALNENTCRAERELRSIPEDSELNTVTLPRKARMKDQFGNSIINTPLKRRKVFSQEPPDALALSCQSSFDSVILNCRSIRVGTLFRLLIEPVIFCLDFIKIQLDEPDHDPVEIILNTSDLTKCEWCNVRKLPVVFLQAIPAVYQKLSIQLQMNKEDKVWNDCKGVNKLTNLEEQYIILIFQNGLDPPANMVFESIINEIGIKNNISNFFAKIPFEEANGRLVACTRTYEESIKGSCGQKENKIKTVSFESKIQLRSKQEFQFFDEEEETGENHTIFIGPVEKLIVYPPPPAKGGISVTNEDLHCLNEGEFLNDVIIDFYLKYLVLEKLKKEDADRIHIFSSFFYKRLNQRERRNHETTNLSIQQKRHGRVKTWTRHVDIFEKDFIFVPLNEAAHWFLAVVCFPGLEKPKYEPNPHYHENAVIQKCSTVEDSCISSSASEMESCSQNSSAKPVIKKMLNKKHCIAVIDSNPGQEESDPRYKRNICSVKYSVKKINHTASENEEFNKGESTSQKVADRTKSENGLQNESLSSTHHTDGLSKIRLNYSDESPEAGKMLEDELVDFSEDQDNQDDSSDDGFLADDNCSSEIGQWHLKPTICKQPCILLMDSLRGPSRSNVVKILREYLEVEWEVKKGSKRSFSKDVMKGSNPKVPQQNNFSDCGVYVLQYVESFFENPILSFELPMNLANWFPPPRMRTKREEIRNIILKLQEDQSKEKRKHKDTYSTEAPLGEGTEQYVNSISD

[3] = molecular target: T4, Sentrin-specific protease 7 (Homo sapiens, UniProt Q9BQF6); test: SENP7 protease inhibitors, SAR follow-up, biochemical, luminescence (AID 504497); assay type: functional
T4 sequence (Q9BQF6 whole entry): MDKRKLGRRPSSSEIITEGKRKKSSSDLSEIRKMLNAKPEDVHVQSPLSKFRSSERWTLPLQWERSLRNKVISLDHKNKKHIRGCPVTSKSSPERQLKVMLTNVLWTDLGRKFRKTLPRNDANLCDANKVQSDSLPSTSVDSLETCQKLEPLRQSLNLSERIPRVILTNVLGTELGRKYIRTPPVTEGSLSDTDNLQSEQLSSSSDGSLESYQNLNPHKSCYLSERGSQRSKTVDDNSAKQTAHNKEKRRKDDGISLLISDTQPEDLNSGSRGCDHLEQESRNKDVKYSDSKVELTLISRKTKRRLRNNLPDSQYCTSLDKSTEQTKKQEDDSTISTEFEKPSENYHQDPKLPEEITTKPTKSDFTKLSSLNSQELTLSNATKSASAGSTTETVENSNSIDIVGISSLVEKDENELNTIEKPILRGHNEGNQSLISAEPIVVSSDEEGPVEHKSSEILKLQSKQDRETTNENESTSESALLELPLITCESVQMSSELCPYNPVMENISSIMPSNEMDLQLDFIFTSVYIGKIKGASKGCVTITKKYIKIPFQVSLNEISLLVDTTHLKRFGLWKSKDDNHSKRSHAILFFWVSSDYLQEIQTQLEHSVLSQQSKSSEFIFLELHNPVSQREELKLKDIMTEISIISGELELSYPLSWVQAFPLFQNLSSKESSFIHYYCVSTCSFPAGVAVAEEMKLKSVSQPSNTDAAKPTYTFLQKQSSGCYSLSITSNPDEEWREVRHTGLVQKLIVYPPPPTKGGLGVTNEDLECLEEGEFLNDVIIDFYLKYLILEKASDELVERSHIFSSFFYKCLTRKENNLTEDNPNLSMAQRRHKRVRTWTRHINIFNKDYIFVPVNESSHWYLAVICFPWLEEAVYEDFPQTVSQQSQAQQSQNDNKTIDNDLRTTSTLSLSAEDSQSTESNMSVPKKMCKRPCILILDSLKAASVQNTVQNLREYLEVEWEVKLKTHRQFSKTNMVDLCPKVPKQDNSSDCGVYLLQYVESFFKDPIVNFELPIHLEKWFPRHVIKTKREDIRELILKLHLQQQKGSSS

[4] = NIH-3T3 fibroblast cytotoxicity, dose response, cytotoxicity control, cell-based, fluorescence, Alamar Blue, secondary assay (AID 2327); assay type: functional;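 further: NIH-3T3 mouse fibroblasts cultured with fluconazole at 8 µg/mL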
[5] = inhibitors of firefly luciferase expression or activity, dose response, H4 neuroglioma cells, luminescence (AID 1990); assay type: functional, cell-based
[6] = tested on: Streptococcus sp. 'group A'; test: growth inhibition of control SK(-) GAS strain, dose response, counter-screen for streptokinase expression inhibitor project, luminescence, kanamycin, BacTiterGlo, confirmation (AID 1900); assay type: functional, organism-based
[7] = Luminescence Cell-Based Dose Response HTS to Identify Inhibitors of 5'UTR Stem-Loop Driven Prion Protein mRNA Translation in H4 Neuroglioblastoma Cells. [Related pubchem assays: 1827 (Project Summary), 1813 (Primary HTS)]; assay type: functional
[8] = inhibitors of SNCA 5'UTR-driven reporter translation, confirmation, H4 neuroglioma cells, luminescence (AID 1988); assay type: functional, cell-based
Streptokinase A = molecular target: T5, Streptokinase A (Streptococcus pyogenes serotype M1, UniProt P10520); test: S. pyogenes streptokinase expression inhibitors, potency, dose response, plasminogen activation absorbance, OD405 (AID 1914); assay type: functional, Streptococcus pyogenes M1 GAS;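 further: secreted streptokinase activity via plasminogen activation per viability signal from cell pellet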
T5 sequence (P10520 whole entry): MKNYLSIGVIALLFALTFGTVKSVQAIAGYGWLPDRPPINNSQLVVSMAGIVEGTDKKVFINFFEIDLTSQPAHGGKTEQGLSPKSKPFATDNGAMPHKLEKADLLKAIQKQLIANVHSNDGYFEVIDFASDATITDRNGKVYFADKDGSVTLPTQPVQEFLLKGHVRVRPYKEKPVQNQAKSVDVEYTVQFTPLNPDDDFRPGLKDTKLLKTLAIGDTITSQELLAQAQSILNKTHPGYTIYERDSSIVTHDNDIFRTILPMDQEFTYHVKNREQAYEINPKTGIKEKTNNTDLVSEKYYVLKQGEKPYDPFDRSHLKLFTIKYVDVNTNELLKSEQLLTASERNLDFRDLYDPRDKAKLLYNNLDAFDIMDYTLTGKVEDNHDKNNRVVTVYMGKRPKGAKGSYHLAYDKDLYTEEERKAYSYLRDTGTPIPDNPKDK

[9] = C. albicans growth with fluconazole, confirmation, fluorescence, retest (AID 2467); assay type: functional, cell-based
[10] = molecular target: Serine/threonine-protein phosphatase (Candida dubliniensis (strain CD36 / CBS 7987 / NCPF 3949 / NRRLY-17841) (Yeast), UniProt B9W6M3); test: calcineurin pathway inhibitors in yeast reporter, dose response, S. cerevisiae, CDRE-lacZ, luminescence, secondary (AID 2388); assay type: functional, cell-based;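 further: yeast reporter cells carrying a calcineurin-responsive lacZ construct stimulated with calcium chloride; luminescent beta-galactosidase reporter signal in whole cells rather than isolated phosphatase activity; potency for inhibition where a drop in reporter signal means calcineurin blockade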
Chain of Serine/threonine-protein phosphatase (B9W6M3 whole entry): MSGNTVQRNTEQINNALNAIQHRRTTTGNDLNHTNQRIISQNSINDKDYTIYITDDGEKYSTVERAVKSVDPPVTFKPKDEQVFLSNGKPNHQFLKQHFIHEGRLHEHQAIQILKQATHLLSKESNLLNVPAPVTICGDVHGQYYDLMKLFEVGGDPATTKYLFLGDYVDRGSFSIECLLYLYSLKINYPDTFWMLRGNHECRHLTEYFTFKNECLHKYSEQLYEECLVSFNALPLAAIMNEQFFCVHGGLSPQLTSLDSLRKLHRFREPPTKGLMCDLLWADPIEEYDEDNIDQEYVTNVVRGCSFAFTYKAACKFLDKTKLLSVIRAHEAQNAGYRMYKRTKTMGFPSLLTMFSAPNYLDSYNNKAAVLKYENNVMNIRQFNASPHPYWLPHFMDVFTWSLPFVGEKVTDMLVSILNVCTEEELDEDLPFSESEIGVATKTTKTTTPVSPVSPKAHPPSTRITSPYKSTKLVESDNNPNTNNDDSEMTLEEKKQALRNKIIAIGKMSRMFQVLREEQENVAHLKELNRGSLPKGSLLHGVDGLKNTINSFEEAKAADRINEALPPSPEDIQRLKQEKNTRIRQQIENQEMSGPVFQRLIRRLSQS

Streptococcus = test: Group A Streptococcus viability loss, dose response, counter-screen for streptokinase expression inhibitor project, luminescence, BacTiterGlo (AID 1915); assay type: functional, organism-based;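 further: potency for reduction of bacterial viability or growth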
[11] = molecular target: ATP-dependent molecular chaperone HSP82 (Candida albicans (strain WO-1) (Yeast), UniProt C4YTQ8); test: loss of DOC-induced GRE-beta-galactosidase reporter signal, dose response, Hsp90 inhibitor project, S. cerevisiae, luminescence (AID 2400); assay type: functional, cell-based;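 further: beta-galactosidase luminescence from glucocorticoid response element reporter as proxy for Hsp90 function; inhibitor potency where signal loss means Hsp90 inhibition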
Chain of ATP-dependent molecular chaperone HSP82 (C4YTQ8 whole entry): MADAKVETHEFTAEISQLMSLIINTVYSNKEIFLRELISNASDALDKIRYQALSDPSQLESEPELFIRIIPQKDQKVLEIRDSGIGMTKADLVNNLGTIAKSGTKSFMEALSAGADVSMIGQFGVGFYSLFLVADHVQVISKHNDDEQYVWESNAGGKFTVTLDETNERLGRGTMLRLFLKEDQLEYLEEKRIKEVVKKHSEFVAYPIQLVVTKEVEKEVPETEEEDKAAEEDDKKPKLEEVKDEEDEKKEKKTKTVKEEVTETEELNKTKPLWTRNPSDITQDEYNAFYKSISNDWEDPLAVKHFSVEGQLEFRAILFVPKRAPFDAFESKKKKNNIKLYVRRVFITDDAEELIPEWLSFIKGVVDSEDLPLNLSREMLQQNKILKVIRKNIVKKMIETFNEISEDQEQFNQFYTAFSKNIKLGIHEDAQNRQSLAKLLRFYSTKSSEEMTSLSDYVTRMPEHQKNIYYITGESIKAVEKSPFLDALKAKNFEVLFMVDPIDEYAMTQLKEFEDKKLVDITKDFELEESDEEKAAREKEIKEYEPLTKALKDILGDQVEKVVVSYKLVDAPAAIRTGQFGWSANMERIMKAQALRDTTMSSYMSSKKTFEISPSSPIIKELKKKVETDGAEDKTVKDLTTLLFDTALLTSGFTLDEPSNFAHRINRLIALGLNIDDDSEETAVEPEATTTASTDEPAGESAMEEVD

[12] = control 3'UTR Renilla luciferase suppression, dose response, counter-screen for Shn3 inhibitor project, cell-based, Clone20-Shn3RL, cherry-picked (AID 624133); assay type: functional
Galanin receptor type 3 = molecular target: T6, Galanin receptor type 3 (Homo sapiens, UniProt O60755); test: Fluorescence-based cell-based primary high throughput dose response assay to identify antagonists of the Galanin Receptor 3 (GalR3).; assay type: functional
T6 sequence (O60755 whole entry): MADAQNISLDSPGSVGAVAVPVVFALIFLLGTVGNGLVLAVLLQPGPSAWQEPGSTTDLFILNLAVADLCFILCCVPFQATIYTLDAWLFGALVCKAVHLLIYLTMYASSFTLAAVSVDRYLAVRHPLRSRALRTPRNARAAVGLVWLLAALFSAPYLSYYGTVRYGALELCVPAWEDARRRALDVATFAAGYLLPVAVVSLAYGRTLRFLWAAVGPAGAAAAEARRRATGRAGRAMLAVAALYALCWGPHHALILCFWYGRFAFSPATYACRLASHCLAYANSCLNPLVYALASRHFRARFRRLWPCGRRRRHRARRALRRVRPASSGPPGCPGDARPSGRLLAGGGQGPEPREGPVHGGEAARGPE

cells = assay type: functional, cell-based; conditions: HEK-CNG
[13] = molecular target: T7, COUP transcription factor 2 (Homo sapiens, UniProt P24468); test: Luminescence-based cell-based high throughput dose response assay to identify inhibitors of COUP-TFII (NR2F2).; assay type: functional;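 further: HEK293 cells transiently cotransfected with COUP-TFII expression vector and reporter; luciferase reporter luminescence driven by COUP-TFII from the pX2-168 reporter plasmid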
T7 sequence (P24468 whole entry): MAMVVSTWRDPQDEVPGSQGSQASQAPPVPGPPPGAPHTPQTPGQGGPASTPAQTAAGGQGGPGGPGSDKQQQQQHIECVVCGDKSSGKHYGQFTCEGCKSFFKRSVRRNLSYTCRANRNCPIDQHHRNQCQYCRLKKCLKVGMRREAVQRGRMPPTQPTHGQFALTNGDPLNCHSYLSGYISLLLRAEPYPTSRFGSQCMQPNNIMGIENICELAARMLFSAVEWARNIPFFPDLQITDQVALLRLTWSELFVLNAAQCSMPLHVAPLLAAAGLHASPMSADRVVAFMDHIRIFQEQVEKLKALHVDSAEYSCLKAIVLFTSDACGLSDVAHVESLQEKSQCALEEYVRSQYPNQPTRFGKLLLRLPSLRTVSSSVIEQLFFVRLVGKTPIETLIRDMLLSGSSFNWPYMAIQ

Chain of DNA topoisomerase (A0A2S9PM60 whole entry): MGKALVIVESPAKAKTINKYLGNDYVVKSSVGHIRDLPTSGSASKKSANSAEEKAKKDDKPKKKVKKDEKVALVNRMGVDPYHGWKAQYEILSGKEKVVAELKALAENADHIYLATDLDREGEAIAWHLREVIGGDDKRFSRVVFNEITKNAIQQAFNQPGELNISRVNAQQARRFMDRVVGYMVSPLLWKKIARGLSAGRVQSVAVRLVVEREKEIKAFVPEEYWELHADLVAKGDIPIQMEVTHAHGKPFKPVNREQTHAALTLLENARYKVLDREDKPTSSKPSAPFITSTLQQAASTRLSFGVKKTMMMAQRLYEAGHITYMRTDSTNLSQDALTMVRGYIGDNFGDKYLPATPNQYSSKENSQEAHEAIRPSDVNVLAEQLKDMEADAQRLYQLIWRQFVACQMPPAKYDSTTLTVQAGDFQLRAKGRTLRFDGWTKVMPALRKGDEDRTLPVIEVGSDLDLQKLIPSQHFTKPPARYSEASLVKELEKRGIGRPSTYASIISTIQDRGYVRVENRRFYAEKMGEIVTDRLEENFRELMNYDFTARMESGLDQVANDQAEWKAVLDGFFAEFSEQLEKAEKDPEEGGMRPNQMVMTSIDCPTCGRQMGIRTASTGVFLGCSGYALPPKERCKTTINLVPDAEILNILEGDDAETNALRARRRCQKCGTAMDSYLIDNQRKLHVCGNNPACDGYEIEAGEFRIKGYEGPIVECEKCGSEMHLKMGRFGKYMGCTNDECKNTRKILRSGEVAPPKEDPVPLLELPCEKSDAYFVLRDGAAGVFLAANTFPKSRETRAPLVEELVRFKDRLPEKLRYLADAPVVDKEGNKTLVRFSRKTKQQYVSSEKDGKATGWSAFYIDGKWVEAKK

Structure (SMILES): CC(C)C(=O)N1CCN(c2nc(-c3ccc(Cl)cc3)cs2)CC1
- AC50 (DNA topoisomerase): 1.72 µM (active)

Structure (SMILES): O=C1c2cccc3c(N4CCCCC4)ccc(c23)C(=O)N1c1cccc(O)c1
- AC50 (HeLa): 81.5 µM (active)
- EC50 (Troponin, cardiac muscle): 1.83 µM (active)
- IC50 (CHO): > 49.7 µM (inactive)
- IC50 (Beta Lactamase): 5.24 µM (active)

Structure (SMILES): Cc1ccc(Cl)c2sc(NC(=O)c3ccc(S(=O)(=O)N4CC(C)CC(C)C4)cc3)nc12 (stereo not drawn)
- IC50 [1]: > 99 µM (inactive)
- IC50 (Caspase-3): > 99 µM (inactive)
- IC50 [2]: > 99 µM (inactive)
- IC50 [3]: > 99 µM (inactive)

Structure (SMILES): CC(C)(C)c1ccc(CSc2cnn(C(C)(C)C)c(=O)c2Cl)cc1 [PYRIDABEN]
- EC50 [4]: 103 µM (active)
- EC50 [5]: > 120 µM (not active)
- EC50 [6]: 4.13 µM (active)
- EC50 [7]: > 120 µM (not active)
- EC50 [8]: > 120 µM (not active)
- EC50 (Streptokinase A): 20.8 µM (active)
- EC50 [9]: 0.211 µM (active)
- EC50 [10]: > 180 µM (inactive)
- EC50 (Streptococcus): 123 µM (active)
- EC50 [11]: > 160 µM (inactive)
- AC50 [12]: < 0.26 µM (active)
- IC50 (Galanin receptor type 3): 0.00657 µM (active)
- EC50 (cells): > 29.9 µM (inactive)
- IC50 [13]: 0.0619 µM (active)
